Results as given in patent EP0572863A1, “CNS pyrazinoindoles” (priority 1992, dated 1993).
Like-named read-outs stand apart in the source and are kept apart here.

What was measured:
[1] = target: 5HT1C-Rezeptor (Homo sapiens, UniProt P28335); assay: 3H-Mesulergin binding test (test method c)
[2] = target: T1, 5HT1A-Rezeptor (Homo sapiens, UniProt P08908); assay: 3H-8-OH-DPAT binding test (test method a)
T1 sequence (P08908 1-422): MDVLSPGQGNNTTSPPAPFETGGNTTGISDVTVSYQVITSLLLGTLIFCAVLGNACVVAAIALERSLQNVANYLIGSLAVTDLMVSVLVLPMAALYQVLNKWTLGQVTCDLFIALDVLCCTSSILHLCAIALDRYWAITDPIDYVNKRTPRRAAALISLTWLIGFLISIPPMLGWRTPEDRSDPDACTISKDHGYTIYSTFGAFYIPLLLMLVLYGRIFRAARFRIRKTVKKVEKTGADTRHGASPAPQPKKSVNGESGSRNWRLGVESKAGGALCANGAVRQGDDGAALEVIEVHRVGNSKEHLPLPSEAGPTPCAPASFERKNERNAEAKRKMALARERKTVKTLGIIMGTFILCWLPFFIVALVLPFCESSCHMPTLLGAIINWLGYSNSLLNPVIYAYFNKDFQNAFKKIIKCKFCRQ

[3] = target: 5HT₂-Rezeptor (Homo sapiens, UniProt P28223); assay: 3H-Metanserin binding test (test method d)
[4] = target: T2, 5HT1c-Rezeptoren (Rattus norvegicus, UniProt P08909); assay: Antagonism of mCPP-induced penile erections; format: in vivo, Ratte; settings: mCPP-pretreated, dose inhibiting number of penile erections within 45 min by 50%
T2 construct: from tissue; host or cells: living rat (whole animal)
T2 sequence (P08909 33-460): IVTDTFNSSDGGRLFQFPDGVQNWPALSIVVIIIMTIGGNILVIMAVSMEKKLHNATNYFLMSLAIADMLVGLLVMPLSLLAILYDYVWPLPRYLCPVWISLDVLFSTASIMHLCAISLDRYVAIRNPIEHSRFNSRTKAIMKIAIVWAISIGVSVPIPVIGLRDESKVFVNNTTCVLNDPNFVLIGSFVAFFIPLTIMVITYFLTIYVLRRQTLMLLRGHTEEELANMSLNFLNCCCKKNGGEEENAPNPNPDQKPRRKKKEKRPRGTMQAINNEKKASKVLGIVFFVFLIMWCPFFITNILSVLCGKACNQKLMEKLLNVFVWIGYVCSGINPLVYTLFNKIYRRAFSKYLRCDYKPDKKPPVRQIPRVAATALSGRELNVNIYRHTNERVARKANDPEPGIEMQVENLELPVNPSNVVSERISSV

[5] = target: T3, 5HT₂-Rezeptoren (Rattus norvegicus, UniProt P14842); assay: Antagonism of Quipazine-induced head shakes; format: in vivo, Ratte; settings: Quipazine-pretreated, dose inhibiting number of head shakes within 45 min by 50%
T3 construct: from tissue; host or cells: living rat (whole animal)

[6] = Testmethode c, concentration displacing 50% of receptor-bound ligand (3H-Mesulergin), read-out: IC₅₀
[7] = Testmethode d, concentration displacing 50% of receptor-bound ligand (3H-Metanserin), read-out: IC₅₀
[8] = Testmethode a, concentration displacing 50% of receptor-bound ligand (3H-8-OH-DPAT), read-out: IC₅₀

Chain of 5HT₂-Rezeptor (P28223 whole entry): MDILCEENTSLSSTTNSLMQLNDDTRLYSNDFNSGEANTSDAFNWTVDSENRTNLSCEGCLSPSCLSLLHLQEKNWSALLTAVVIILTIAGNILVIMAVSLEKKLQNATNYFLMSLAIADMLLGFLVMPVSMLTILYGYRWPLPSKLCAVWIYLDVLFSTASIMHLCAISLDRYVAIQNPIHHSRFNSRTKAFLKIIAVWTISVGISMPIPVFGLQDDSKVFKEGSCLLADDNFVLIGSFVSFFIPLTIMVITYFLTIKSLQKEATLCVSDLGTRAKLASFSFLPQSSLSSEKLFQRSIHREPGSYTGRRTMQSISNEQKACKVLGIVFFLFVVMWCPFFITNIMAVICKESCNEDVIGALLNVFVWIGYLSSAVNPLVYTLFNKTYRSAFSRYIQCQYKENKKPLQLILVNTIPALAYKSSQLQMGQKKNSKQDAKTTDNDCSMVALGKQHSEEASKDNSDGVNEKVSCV
T3 sequence (P14842 whole entry): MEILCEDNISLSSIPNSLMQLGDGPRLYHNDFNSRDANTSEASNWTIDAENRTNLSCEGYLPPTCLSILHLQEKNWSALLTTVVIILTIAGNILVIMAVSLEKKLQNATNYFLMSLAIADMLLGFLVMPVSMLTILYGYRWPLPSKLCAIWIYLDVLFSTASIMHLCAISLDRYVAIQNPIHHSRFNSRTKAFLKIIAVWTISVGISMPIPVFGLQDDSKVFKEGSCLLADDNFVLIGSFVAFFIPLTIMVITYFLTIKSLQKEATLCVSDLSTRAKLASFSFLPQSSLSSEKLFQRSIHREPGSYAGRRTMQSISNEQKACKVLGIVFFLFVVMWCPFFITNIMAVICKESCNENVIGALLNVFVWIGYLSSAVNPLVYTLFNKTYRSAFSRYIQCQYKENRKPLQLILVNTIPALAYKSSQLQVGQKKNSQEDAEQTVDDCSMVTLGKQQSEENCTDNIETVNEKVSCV
Chain of 5HT1C-Rezeptor (P28335 33-458): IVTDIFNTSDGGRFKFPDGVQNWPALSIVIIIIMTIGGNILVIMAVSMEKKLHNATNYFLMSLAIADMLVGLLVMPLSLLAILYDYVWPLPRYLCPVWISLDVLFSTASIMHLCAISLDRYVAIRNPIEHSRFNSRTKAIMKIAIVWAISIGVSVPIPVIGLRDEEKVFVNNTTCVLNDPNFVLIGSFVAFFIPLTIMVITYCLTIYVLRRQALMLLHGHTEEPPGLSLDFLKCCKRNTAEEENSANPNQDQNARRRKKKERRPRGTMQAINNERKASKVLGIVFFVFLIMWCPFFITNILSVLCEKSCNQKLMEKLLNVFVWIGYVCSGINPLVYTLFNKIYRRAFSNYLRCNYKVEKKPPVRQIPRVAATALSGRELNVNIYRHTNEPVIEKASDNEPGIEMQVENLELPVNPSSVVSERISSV

| Structure (SMILES) | IC50 [1, 6] [nM] | IC50 [2] [nM] | IC50 [1] [nM] | IC50 [3, 7] [nM] | ID₅₀ [4] | ID₅₀ [5] [mg/kg. s.c.] | IC50 [2, 8] [nM] | IC50 [3] [nM] |
| --- | --- | --- | --- | --- | --- | --- | --- | --- |
| Cc1nc2sccn2c(=O)c1CCN1CCC(=C(c2ccc(F)cc2)c2ccc(F)cc2)CC1 [Ritanserin, reference compound] | 37 | – | – | – | – | – | – | – |
| Cc1nc2ccccn2c(=O)c1CCN1CCC(C(=O)c2ccc(F)cc2)CC1 [Pirenperon, reference compound] | – | 2870 | 37 | 2.9 | – | – | – | – |
| COc1c2n(c3ccc(Br)cc13)CCNC2 [Substanz G, 8-Brom-1,2,3,4-tetrahydro-10-methoxy-pyrazino[1,2-a]indol] | 269 | 298 | – | 2810 | – | – | – | – |
| Fc1ccc2c(cc3n2CCNC3)c1Cl [Substanz N, 9-Chlor-8-fluor-1,2,3,4-tetrahydropyrazino[1,2-a]indol] | 57 | 964 | – | 902 | 4.2 mg/kg, s.c. | 5.2 | – | – |
| CSc1c2n(c3ccccc13)CCNC2 [Substanz K, 1,2,3,4-Tetrahydro-10-methylthiopyrazino[1,2-a]-indol] | – | – | – | – | – | – | 705 | – |
| Clc1cccc(N2CCNCC2)c1 [mCPP, reference compound] | – | 227 | – | – | – | – | – | – |
| COc1c2n(c3cc(Cl)cc(Cl)c13)CCNC2 [Substanz L, 7,9-Dichlor-1,2,3,4-tetrahydro-10-methoxy-pyrazino[1,2-a]indol] | 251 | 459 | – | 5850 | – | – | – | – |
| COc1c2n(c3cccc(C(F)(F)F)c13)CCNC2 [Substanz J, 9-Trifluormethyl-1,2,3,4-tetrahydro-10-methoxy-pyrazino[1,2-a]-indol] | 66 | 512 | – | 374 | – | – | – | – |
| COc1c2n(c3cccc(F)c13)CCNC2 [Substanz C, 9-Fluor-1,2,3,4-tetrahydro-10-methoxy-pyrazino[1,2-a]indol] | – | 1070 | 221 | – | 17.0 mg/kg, s.c. | – | – | 5170 |
| COc1c2n(c3ccc(F)c(Cl)c13)CCNC2 [Substanz H, 9-Chlor-8-fluor-1,2,3,4-tetrahydro-10-methoxy-pyrazino[1,2-a]indol] | 90.5 | 354 | – | 1030 | – | – | – | – |
| COc1ccccc1N1CCN(CCCCN2C(=O)c3ccccc3C2=O)CC1 [NAN-190, reference compound] | 1800 | – | – | – | – | – | – | 581 |
| COc1c2n(c3ccccc13)CCNC2 [Substanz A, 10-Methoxy-1,2,3,4-tetrahydropyrazino[1,2-a]-indol] | – | – | – | – | – | – | 687 | – |
| COc1ccc2[nH]cc(C3=CCNCC3)c2c1 [RU 24969, reference compound] | – | 8 | – | – | – | – | – | – |
| COc1c2n(c3cccc(Br)c13)CCNC2 [Substanz E, 9-Brom-1,2,3,4-tetrahydro-10-methoxy-pyrazino[1,2-a]indol] | – | 407 | 83.8 | – | 4.3 mg/kg, s.c. | 3.1 | – | 1020 |
| COc1c2n(c3ccc(F)cc13)CCNC2 [Substanz B, 8-Fluor-1,2,3,4-tetrahydro-10-methoxy-pyrazino[1,2-a]-indol] | – | 2370 | 367 | – | 4.2 mg/kg, s.c. | – | – | 9390 |
| COc1c2n(c3cc(Cl)ccc13)CCNC2 [Substanz F, 7-Chlor-1,2,3,4-tetrahydro-10-methoxy-pyrazino[1,2-a]indol] | 406 | 425 | – | 9460 | – | – | – | – |
| COc1c2n(c3ccc(Cl)cc13)CCNC2 [Substanz D, 8-Chlor-1,2,3,4-tetrahydro-10-methoxy-pyrazino[1,2-a]-indol] | – | 657 | 195 | 3140 | – | – | – | – |
| O=c1ccc2[nH]cc(C3=CCNCC3)c2[nH]1 [CP 93129, reference compound] | – | 1620 | – | – | – | – | – | 29200 |
| COc1c2n(c3c(Br)cccc13)CCNC2 [Substanz M, 6-Brom-1,2,3,4-tetrahydro-10-methoxy-pyrazino[1,2-a]indol] | 923 | 690 | – | 3030 | – | – | – | – |
| COc1c2n(c3cccc(C)c13)CCNC2 [Substanz I, 1,2,3,4-Tetrahydro-10-methoxy-9-methyl-pyrazino[1,2-a]indol] | 219 | – | – | 2270 | 2.7 mg/kg, s.c. | 3.0 | 106 | – |
